One molecule from US20090047682A1, “Method of detecting and predicting bronchodilatory response to beta agonist” (COUNCIL OF SCIENTIFIC AND INDUSTRIAL RESEARCH, priority 2004, published 2009) can be followed below.

This experiment has as its system β2AR. The conditions noted are these: Indian population; χ2=11.28, df=2, p=0.004.

For `CC(C)(C)NCC(O)c1ccc(O)c(CO)c1` (stereo not shown) [salbutamol], the “association of responder status to treatment with genotype at β2AR gene” value is reported as “strongly associated”.
